From PubChem BioAssay AID1259407 (Chemical Carcinogenesis Research Information System (CCRIS), 2018)
The source made the active and inactive calls. The rule behind the calls is not given here.

Test system: CCRIS mutagenicity, Ames/micronucleus/aberration tests
Experiment: CCRIS mutagenicity studies

Measured: mutagenic call

O=C(O)CN(CC(=O)O)CC(=O)O
active: Test System: Mouse lymphoma, Strain/Indicator: L5178Y (tk+/tk-), Metabolic Activation: None, Method: Microwell active; positive. small colonies only.
inactive: Test System: AMES SALMONELLA TYPHIMURIUM, Strain/Indicator: TA1535, Metabolic Activation: NONE, Method: STANDARD PLATE inactive; negative | Test System: AMES SALMONELLA TYPHIMURIUM, Strain/Indicator: TA1535, Metabolic Activation: NONE, Method: SUSPENSION/PLATE inactive; negative | Test System: AMES SALMONELLA TYPHIMURIUM, Strain/Indicator: TA1535, Metabolic Activation: RAT, LIVER, S-9, AROCLOR 1254 (10 OR 30%), Method: PREINCUBATION inactive; negative | Test System: AMES SALMONELLA TYPHIMURIUM, Strain/Indicator: TA1535, Metabolic Activation: RAT, LIVER, S-9, AROCLOR 1254, Method: STANDARD PLATE inactive; negative | Test System: AMES SALMONELLA TYPHIMURIUM, Strain/Indicator: TA1535, Metabolic Activation: RAT, LIVER, S-9, Method: STANDARD PLATE inactive; negative | Test System: AMES SALMONELLA TYPHIMURIUM, Strain/Indicator: TA1537, Metabolic Activation: HAMSTER, LIVER, S-9, AROCLOR 1254 (10 OR 30%), Method: PREINCUBATION inactive; negative | Test System: AMES SALMONELLA TYPHIMURIUM, Strain/Indicator: TA1537, Metabolic Activation: HAMSTER, LIVER, S-9, AROCLOR 1254, Method: STANDARD PLATE inactive; negative | Test System: AMES SALMONELLA TYPHIMURIUM, Strain/Indicator: TA1537, Metabolic Activation: HAMSTER, LIVER, S-9, Method: STANDARD PLATE inactive; negative | Test System: AMES SALMONELLA TYPHIMURIUM, Strain/Indicator: TA1537, Metabolic Activation: MOUSE, LIVER, S-9, AROCLOR 1254, Method: STANDARD PLATE inactive; negative | Test System: AMES SALMONELLA TYPHIMURIUM, Strain/Indicator: TA1537, Metabolic Activation: MOUSE, LIVER, S-9, Method: STANDARD PLATE inactive; negative | Test System: AMES SALMONELLA TYPHIMURIUM, Strain/Indicator: TA1537, Metabolic Activation: NONE, Method: PREINCUBATION inactive; negative | Test System: AMES SALMONELLA TYPHIMURIUM, Strain/Indicator: TA1537, Metabolic Activation: NONE, Method: STANDARD PLATE inactive; negative | Test System: AMES SALMONELLA TYPHIMURIUM, Strain/Indicator: TA1537, Metabolic Activation: NONE, Method: SUSPENSION/PLATE inactive; negative | Test System: AMES SALMONELLA TYPHIMURIUM, Strain/Indicator: TA1537, Metabolic Activation: RAT, LIVER, S-9, AROCLOR 1254 (10 OR 30%), Method: PREINCUBATION inactive; negative | Test System: AMES SALMONELLA TYPHIMURIUM, Strain/Indicator: TA1537, Metabolic Activation: RAT, LIVER, S-9, AROCLOR 1254, Method: STANDARD PLATE inactive; negative | Test System: AMES SALMONELLA TYPHIMURIUM, Strain/Indicator: TA1537, Metabolic Activation: RAT, LIVER, S-9, Method: STANDARD PLATE inactive; negative | Test System: AMES SALMONELLA TYPHIMURIUM, Strain/Indicator: TA1538, Metabolic Activation: HAMSTER, LIVER, S-9, AROCLOR 1254, Method: STANDARD PLATE inactive; negative | Test System: AMES SALMONELLA TYPHIMURIUM, Strain/Indicator: TA1538, Metabolic Activation: HAMSTER, LIVER, S-9, Method: STANDARD PLATE inactive; negative | Test System: AMES SALMONELLA TYPHIMURIUM, Strain/Indicator: TA1538, Metabolic Activation: MOUSE, LIVER, S-9, AROCLOR 1254, Method: STANDARD PLATE inactive; negative | Test System: AMES SALMONELLA TYPHIMURIUM, Strain/Indicator: TA1538, Metabolic Activation: MOUSE, LIVER, S-9, Method: STANDARD PLATE inactive; negative | Test System: AMES SALMONELLA TYPHIMURIUM, Strain/Indicator: TA1538, Metabolic Activation: NONE, Method: STANDARD PLATE inactive; negative | Test System: AMES SALMONELLA TYPHIMURIUM, Strain/Indicator: TA1538, Metabolic Activation: RAT, LIVER, S-9, AROCLOR 1254, Method: STANDARD PLATE inactive; negative | Test System: AMES SALMONELLA TYPHIMURIUM, Strain/Indicator: TA1538, Metabolic Activation: RAT, LIVER, S-9, Method: STANDARD PLATE inactive; negative | Test System: Ames Salmonella typhimurium, Strain/Indicator: TA98, Metabolic Activation: None, Method: Plate incorporation inactive; negative | Test System: Ames Salmonella typhimurium, Strain/Indicator: TA98, Metabolic Activation: Rat, Kidney, S9, Aroclor 1254 with NADP, Method: Preincubation inactive; negative | Test System: Ames Salmonella typhimurium, Strain/Indicator: TA98, Metabolic Activation: Rat, Kidney, S9, Aroclor 1254 with arachidonic acid instead of NADP, Method: Preincubation inactive; negative | Test System: Ames Salmonella typhimurium, Strain/Indicator: TA98, Metabolic Activation: Rat, Liver, S9, Aroclor 1254, Method: Preincubation inactive; negative | Test System: Ames Salmonella typhimurium, Strain/Indicator: TA100, Metabolic Activation: None, Method: Plate incorporation inactive; negative | Test System: Ames Salmonella typhimurium, Strain/Indicator: TA100, Metabolic Activation: Rat, Kidney, S9, Aroclor 1254 with NADP, Method: Preincubation inactive; negative | Test System: Ames Salmonella typhimurium, Strain/Indicator: TA100, Metabolic Activation: Rat, Kidney, S9, Aroclor 1254 with arachidonic acid instead of NADP, Method: Preincubation inactive; negative | Test System: Ames Salmonella typhimurium, Strain/Indicator: TA100, Metabolic Activation: Rat, Liver, S9, Aroclor 1254, Method: Preincubation inactive; negative | Test System: Ames Salmonella typhimurium, Strain/Indicator: TA102, Metabolic Activation: None, Method: Plate incorporation inactive; negative. significant decrease at three highest doses. | Test System: Ames Salmonella typhimurium, Strain/Indicator: TA102, Metabolic Activation: Rat, Kidney, S9, Aroclor 1254 with NADP, Method: Preincubation inactive; negative | Test System: Ames Salmonella typhimurium, Strain/Indicator: TA102, Metabolic Activation: Rat, Kidney, S9, Aroclor 1254 with arachidonic acid instead of NADP, Method: Preincubation inactive; negative | Test System: Ames Salmonella typhimurium, Strain/Indicator: TA102, Metabolic Activation: Rat, Liver, S9, Aroclor 1254, Method: Preincubation inactive; negative | Test System: Ames Salmonella typhimurium, Strain/Indicator: TA1537, Metabolic Activation: None, Method: Plate incorporation inactive; negative | Test System: Ames Salmonella typhimurium, Strain/Indicator: TA1537, Metabolic Activation: Rat, Kidney, S9, Aroclor 1254 with NADP, Method: Preincubation inactive; negative | Test System: Ames Salmonella typhimurium, Strain/Indicator: TA1537, Metabolic Activation: Rat, Kidney, S9, Aroclor 1254 with arachidonic acid instead of NADP, Method: Preincubation inactive; negative | Test System: Ames Salmonella typhimurium, Strain/Indicator: TA1537, Metabolic Activation: Rat, Liver, S9, Aroclor 1254, Method: Preincubation inactive; negative | Test System: E. COLI, Strain/Indicator: WP2 UVRA, Metabolic Activation: HAMSTER, LIVER, S-9, AROCLOR 1254, Method: STANDARD PLATE inactive; negative | Test System: E. COLI, Strain/Indicator: WP2 UVRA, Metabolic Activation: HAMSTER, LIVER, S-9, Method: STANDARD PLATE inactive; negative | Test System: E. COLI, Strain/Indicator: WP2 UVRA, Metabolic Activation: MOUSE, LIVER, S-9, AROCLOR 1254, Method: STANDARD PLATE inactive; negative | Test System: E. COLI, Strain/Indicator: WP2 UVRA, Metabolic Activation: MOUSE, LIVER, S-9, Method: STANDARD PLATE inactive; negative | Test System: E. COLI, Strain/Indicator: WP2 UVRA, Metabolic Activation: NONE, Method: STANDARD PLATE inactive; negative | Test System: E. COLI, Strain/Indicator: WP2 UVRA, Metabolic Activation: RAT, LIVER, S-9, AROCLOR 1254, Method: STANDARD PLATE inactive; negative | Test System: E. COLI, Strain/Indicator: WP2 UVRA, Metabolic Activation: RAT, LIVER, S-9, Method: STANDARD PLATE inactive; negative | Test System: MOUSE LYMPHOMA, Strain/Indicator: L5178Y (TK+/TK-), Metabolic Activation: NONE, Method: SUSPENSION/PLATE inactive; negative | Test System: MOUSE LYMPHOMA, Strain/Indicator: L5178Y (TK+/TK-), Metabolic Activation: RAT, LIVER, S-9, AROCLOR 1254, Method: SUSPENSION/PLATE inactive; negative | Test System: MOUSE LYMPHOMA, Strain/Indicator: L5178Y (TK+/TK-), Metabolic Activation: RAT, LIVER, S-9, Method: SUSPENSION/PLATE inactive; negative
